Changes are numbered by the printed parent chain.
Legend:
Conditions in all cases: for ΔpEC50±SEM: relative to WT, n = 3 in triplicate; for ΔpEC50±SEM / Span±SEM: mean ± SEM; for Span±SEM: window between maximal response (Emax) and vehicle, n = 3
[1] = tested on: T1, PTH1R T178A mutant; assay: cAMP accumulation assay (GloSensor), PTH1R T178A; format: cell-based, human
T1 construct: a flag-tag was fused to the N terminal of full-length PTH1R (WT or mutant); expressed in transfected cells; host or cells: HEK293T
Procedure: (§1) After 24 h, transfected cells were plated onto a 384-well plate, which was treated with cell adherent reagent (Applygen) in advance. After another 12 h, cells were treated with Hank’s balanced salt solution for starvation and then incubated in CO2-independent media containing 4% GloSensor cAMP Reagent (Promega) at a volume of 5 μl per well and incubated for 20 min at RT before measurements for baseline luminescence (Spark Multimode microplate reader, TECAN). Next, test ligands were added at different concentrations from 10^−6 to 10^−13 M before second measurement. Finally, data were normalized to 100% of the maximal PTH (1-34) response for WT PTH1R using a sigmoidal dose-response in GraphPad Prism.
Statistical analyses were performed on at least three individual datasets and analysed using GraphPad Prism software. […] Data are mean± s.e.m. from at least three independent experiments, performed in triplicates. ns, not significant, ^nsP > 0.01; ^*P < 0.01; ^**P < 0.001; ^***P < 0.0001 (one-way analysis of variance (ANOVA) followed by Dunnett’s test, compared with the response of the WT). For dose-response experiments, data were normalized and analyzed using nonlinear curve fitting for the log (agonist) versus response (three parameters) curves.

[2] = molecular target: T2, PTH1R E180A mutant (Homo sapiens, UniProt Q03431, E180A); assay: cAMP accumulation assay (GloSensor), PTH1R E180A; format: cell-based
T2 construct: a flag-tag was fused to the N terminal of full-length PTH1R (WT or mutant); expressed in transfected cells; host or cells: HEK293T
T2 sequence (Q03431 27-593 E180A): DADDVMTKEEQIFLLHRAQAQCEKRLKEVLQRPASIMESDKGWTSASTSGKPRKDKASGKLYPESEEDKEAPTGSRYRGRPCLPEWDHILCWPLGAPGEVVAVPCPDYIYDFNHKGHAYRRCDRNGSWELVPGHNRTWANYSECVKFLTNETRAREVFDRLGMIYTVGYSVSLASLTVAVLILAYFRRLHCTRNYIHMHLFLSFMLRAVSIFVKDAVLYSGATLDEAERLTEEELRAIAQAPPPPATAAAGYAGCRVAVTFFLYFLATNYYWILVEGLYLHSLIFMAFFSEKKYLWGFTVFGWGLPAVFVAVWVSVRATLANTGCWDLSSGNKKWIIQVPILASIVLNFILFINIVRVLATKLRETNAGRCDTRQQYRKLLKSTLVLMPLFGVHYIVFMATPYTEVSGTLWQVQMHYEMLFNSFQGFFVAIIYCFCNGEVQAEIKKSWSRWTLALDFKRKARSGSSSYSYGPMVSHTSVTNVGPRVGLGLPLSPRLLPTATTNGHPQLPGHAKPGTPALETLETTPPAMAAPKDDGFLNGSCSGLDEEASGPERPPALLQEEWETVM
Procedure: as §1, with “Human embryonic kidney 293 T (HEK293T, ATCC: CRL-1573) cells were transfected with a plasmid mixture consisting of pcDNA3.1-flag-PTH1R (WT or mutants) and the cAMP biosensor GloSensor-22F (Promega) at a ratio of 2:1 (see Supplementary Table 7 for a list of primers used in this study). After 24” for “After 24”
(§2) Statistical analyses were performed on at least three individual datasets and analysed using GraphPad Prism software. Bars represent differences in the calculated agonist potency (pEC50) and maximum agonist response (Emax) for each mutant relative to the WT receptor. Data are mean± s.e.m. from at least three independent experiments, performed in triplicates. ns, not significant, ^nsP > 0.01; ^*P < 0.01; ^**P < 0.001; ^***P < 0.0001 (one-way analysis of variance (ANOVA) followed by Dunnett’s test, compared with the response of the WT). For dose-response experiments, data were normalized and analyzed using nonlinear curve fitting for the log (agonist) versus response (three parameters) curves.

[3] = molecular target: T3, PTH1R I363A mutant (Homo sapiens, UniProt Q03431, I363A); assay: cAMP accumulation assay (GloSensor), PTH1R I363A; format: cell-based
T3 construct: a flag-tag was fused to the N terminal of full-length PTH1R (WT or mutant); expressed in transfected cells; host or cells: HEK293T
T3 sequence (Q03431 27-593 I363A): T2 sequence (Q03431 27-593 E180A) with A154E, I337A
Procedure: as §1, with “Human embryonic kidney 293 T (HEK293T, ATCC: CRL-1573) cells were transfected with a plasmid mixture consisting of pcDNA3.1-flag-PTH1R (WT or mutants) and the cAMP biosensor GloSensor-22F (Promega) at a ratio of 2:1 (see Supplementary Table 7 for a list of primers used in this study). After 24” for “After 24”
as §2

| span (from the WT) ([2]; PTH1R E1801.32A, replicate 1) | ΔpEC50 (from the WT) ([2]; PTH1R E1801.32A, replicate 1) | span (from the WT) ([2]; PTH1R E1801.32A, replicate 2) | ΔpEC50 (from the WT) ([2]; PTH1R E1801.32A, replicate 2) | span (from the WT) ([2]; PTH1R E1801.32A, replicate 3) | ΔpEC50 (from the WT) ([2]; PTH1R E1801.32A, replicate 3) | ΔpEC50±SEM [2] | ΔpEC50 (from the WT) ([2]; replicate 1) | ΔpEC50 (from the WT) ([2]; replicate 2) | Substance | span (from the WT) ([1]; PTH1R T1781.30A, replicate 1) | ΔpEC50 (from the WT) ([1]; PTH1R T1781.30A, replicate 1) | span (from the WT) ([1]; PTH1R T1781.30A, replicate 2) | ΔpEC50 (from the WT) ([1]; PTH1R T1781.30A, replicate 2) | span (from the WT) ([1]; PTH1R T1781.30A, replicate 3) | ΔpEC50 (from the WT) ([1]; PTH1R T1781.30A, replicate 3) | ΔpEC50±SEM [1] | ΔpEC50 (from the WT) ([1]; replicate 1) | ΔpEC50 (from the WT) ([1]; replicate 2) | ΔpEC50 (from the WT) ([1]; replicate 3) | Span±SEM [1] | also measured |
| --- | --- | --- | --- | --- | --- | --- | --- | --- | --- | --- | --- | --- | --- | --- | --- | --- | --- | --- | --- | --- | --- |
| 111 | -0.03 | 162.5 | 0.025 | 202.3 | 0.095 | 0.03±0.04 | -0.03 | 0.025 | H-AVAEIQLMHQRAKWIQDARRRAFLHKLIAEIHTAEI-OH [LA-PTH, long-acting PTH analog, modified PTH/PTHrP hybrid] | 104.1 | -0.079 | 116.4 | 0 | 180.3 | -0.07 | -0.05±0.02 | -0.079 | 0 | -0.07 | 133.60±23.62 | ΔpEC50 (from the WT) ([2]; replicate 3): 0.095; Span±SEM [2]: 158.60±26.43; span (from the WT) ([3]; PTH1R I3635.39A, replicate 1): 94.78; ΔpEC50 (from the WT) ([3]; PTH1R I3635.39A, replicate 1): -0.24; span (from the WT) ([3]; PTH1R I3635.39A, replicate 2): 139.7; ΔpEC50 (from the WT) ([3]; PTH1R I3635.39A, replicate 2): -0.23; span (from the WT) ([3]; PTH1R I3635.39A, replicate 3): 119.7; ΔpEC50±SEM [3]: -0.05±0.19; ΔpEC50 (from the WT) ([3]; replicate 1): -0.24; ΔpEC50 (from the WT) ([3]; replicate 2): -0.23; ΔpEC50 (from the WT) ([3]; replicate 3): 0.32; Span±SEM [3]: 118.06±12.99 |
| 108.2 | -0.151 | 115.5 | -0.207 | 203.5 | 0.036 | -0.11±0.07 | -0.151 | -0.207 | H-SVSEIQLMHNLGKHLNSMERVEWLRKKLQDVHNF-OH [PTH, Teriparatide, human PTH 1-34, long-acting peptide agonist of PTH1R] | 113.4 | -0.148 | 160.5 | -0.301 | 167.8 | -0.188 | -0.21±0.05 | -0.148 | -0.301 | -0.188 | 147.23±17.05 | ΔpEC50 (from the WT) ([2]; replicate 3): 0.036; Span±SEM [2]: 193.57±39.96; span (from the WT) ([3]; PTH1R I3635.39A, replicate 1): 93.29; ΔpEC50 (from the WT) ([3]; PTH1R I3635.39A, replicate 1): -0.207; span (from the WT) ([3]; PTH1R I3635.39A, replicate 2): 156.2; ΔpEC50 (from the WT) ([3]; PTH1R I3635.39A, replicate 2): -0.352; span (from the WT) ([3]; PTH1R I3635.39A, replicate 3): 155.7; ΔpEC50 (from the WT) ([3]; PTH1R I3635.39A, replicate 3): -0.276; ΔpEC50±SEM [3]: -0.28±0.04; ΔpEC50 (from the WT) ([3]; replicate 1): -0.207; ΔpEC50 (from the WT) ([3]; replicate 2): -0.352; ΔpEC50 (from the WT) ([3]; replicate 3): -0.276; Span±SEM [3]: 180.23±7.67 |

| Substance | span (from the WT) ([2]; PTH1R E1801.32A, replicate 1) | ΔpEC50 (from the WT) ([2]; PTH1R E1801.32A, replicate 1) | span (from the WT) ([2]; PTH1R E1801.32A, replicate 2) | ΔpEC50 (from the WT) ([2]; PTH1R E1801.32A, replicate 2) | span (from the WT) ([2]; PTH1R E1801.32A, replicate 3) | ΔpEC50 (from the WT) ([2]; PTH1R E1801.32A, replicate 3) | ΔpEC50±SEM [2] | ΔpEC50 (from the WT) ([2]; replicate 1) | ΔpEC50 (from the WT) ([2]; replicate 2) | span (from the WT) ([1]; PTH1R T1781.30A, replicate 1) | ΔpEC50 (from the WT) ([1]; PTH1R T1781.30A, replicate 1) | span (from the WT) ([1]; PTH1R T1781.30A, replicate 2) | ΔpEC50 (from the WT) ([1]; PTH1R T1781.30A, replicate 2) | span (from the WT) ([1]; PTH1R T1781.30A, replicate 3) | ΔpEC50 (from the WT) ([1]; PTH1R T1781.30A, replicate 3) | ΔpEC50±SEM [1] | ΔpEC50 (from the WT) ([1]; replicate 1) | ΔpEC50 (from the WT) ([1]; replicate 2) | ΔpEC50 (from the WT) ([1]; replicate 3) | Span±SEM [1] | also measured |
| --- | --- | --- | --- | --- | --- | --- | --- | --- | --- | --- | --- | --- | --- | --- | --- | --- | --- | --- | --- | --- | --- |
| H-AVSEHQLLHDKGKSIQDLRRRELLEKLL-{Aib}-KLHTA-NH2 [ABL, Abaloparatide, an analog of PTHrP, short-acting PTH1R agonist] | 108.1 | -0.513 | 146.6 | -0.61 | 148 | -0.513 | -0.55±0.03 | -0.513 | -0.61 | 120.4 | -0.829 | 180.3 | -0.74 | 96.78 | -0.62 | -0.73±0.06 | -0.829 | -0.74 | -0.62 | 132.49±24.86 | ΔpEC50 (from the WT) ([2]; replicate 3): -0.513; Span±SEM [2]: 134.23±13.07; span (from the WT) ([3]; PTH1R I3635.39A, replicate 1): 145.9; ΔpEC50 (from the WT) ([3]; PTH1R I3635.39A, replicate 1): -0.54; span (from the WT) ([3]; PTH1R I3635.39A, replicate 2): 170; ΔpEC50 (from the WT) ([3]; PTH1R I3635.39A, replicate 2): -0.46; span (from the WT) ([3]; PTH1R I3635.39A, replicate 3): 139.9; ΔpEC50 (from the WT) ([3]; PTH1R I3635.39A, replicate 3): -0.722; ΔpEC50±SEM [3]: -0.57±0.08; ΔpEC50 (from the WT) ([3]; replicate 1): -0.54; ΔpEC50 (from the WT) ([3]; replicate 2): -0.46; ΔpEC50 (from the WT) ([3]; replicate 3): -0.722; Span±SEM [3]: 151.93±9.20 |
